pEC50, pKi: −log10 of the molar value. Several values for one entry are separate records, joined by “and”; a condition that tells them apart may be missing. Equal entries are not always repeated. Structures can show the parent of a compound that is named as a salt. Where two headings read alike, the source gives them in different places.

Data on seven compounds can be found in patent US20110118239A1, “PREPARATION AND ENANTIOMERIC SEPARATION OF 7-(3-PYRIDINYL)-1,7-DIAZASPIRO[4.4]NONANE AND NOVEL SALT FORMS OF THE RACEMATE AND ENANTIOMERS” (Targacept, Inc., priority 2008, published 2011).

Data set [1] in a line: Dynamic vapor sorption (DVS) analysis. The class given is physicochemical. The procedure:
In a dynamic vapor sorption (DVS) apparatus, a sample of (R)-7-(3-pyridinyl)-1,7-diazaspiro[4.4]nonane mono-p-hydroxybenzoate (˜14.1 mg) was subjected to gradually increasing, followed by then gradually decreasing, humidity over a period of about 10 h (see details below). […] Given its relatively high melting point and crystalline nature, it is therefore a particularly good candidate for drug development.

Data set [2] deals with rats. The experiment in a line: Seizure/convulsion induction after acute dose, rats. In kind it is in vivo. Conditions: male rats; acute oral dose of 300 mg/kg. The procedure: For example, preclinically, Compound C induced seizures following acute doses:
Likewise, Compound B induced convulsion in 1/6 male rats following an acute oral dose of 300 mg/kg.
In fact, the effect of Compound A was not statistically different from the vehicle control.

In data set [3] the target is Human Muscle (Homo sapiens, UniProt P02708+P07510+Q07001). The experiment in a line: Function at human muscle subtype, single point 100 μM. In kind it is cell-based. The procedure:
(§1) Binding and function of the compounds to relevant receptor sites was determined in accordance with the techniques described in PCT WO 2008/057938. Inhibition constants (Ki values), reported in nM, were calculated from the IC50 values using the method of Cheng et al., Biochem. Pharmacol. 22: 3099 (1973). […] Thus, the compounds of the present invention are selective modulators of the α4β2 NNR subtype.

Data set [4] deals with Rat α7 (Rattus norvegicus, UniProt Q05941). Briefly: Binding to rat α7 NNR (Ki). Conditions: read-out: Rat α7 Ki. The procedure:
as §1

The target in data set [5] is T1, muscarinic M1 (Homo sapiens, UniProt P11229).
T1 sequence (P11229 1-460): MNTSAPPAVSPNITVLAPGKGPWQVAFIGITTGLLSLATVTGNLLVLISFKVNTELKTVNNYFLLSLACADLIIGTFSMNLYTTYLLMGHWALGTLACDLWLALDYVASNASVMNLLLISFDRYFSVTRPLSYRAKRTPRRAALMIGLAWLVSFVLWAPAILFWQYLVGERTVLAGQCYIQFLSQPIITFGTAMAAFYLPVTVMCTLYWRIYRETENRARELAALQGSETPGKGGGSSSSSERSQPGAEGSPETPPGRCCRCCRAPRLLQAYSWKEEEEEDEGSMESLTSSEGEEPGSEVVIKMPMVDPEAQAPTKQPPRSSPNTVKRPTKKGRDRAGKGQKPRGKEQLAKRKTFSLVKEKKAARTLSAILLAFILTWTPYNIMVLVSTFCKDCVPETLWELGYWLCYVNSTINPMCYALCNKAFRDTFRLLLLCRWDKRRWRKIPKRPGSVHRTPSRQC
Briefly: Standard receptor screen at 10 μM: muscarinic M1. Conditions: hydrochloride salt, read-out: inhibition at muscarinic M1 receptors. In kind it is binding. The method, then: (§2) Both Compound A, (R)-7-(3-pyridinyl)-1,7-diazaspiro[4.4]nonane, and Compound B, (S)-7-(3-pyridinyl)-1,7-diazaspiro[4.4]nonane, each as their hydrochloride salts, were screened, at 10 μM concentration, against a standard set of receptors. […] Thus, the two stereoisomers differentiate from one another in terms of their non-nicotinic receptor binding characteristics. This differentiation is believed to translate into a differentiation between the ability of each of (R)-7-(3-pyridinyl)-1,7-diazaspiro[4.4]nonane and (S)-7-(3-pyridinyl)-1,7-diazaspiro[4.4]nonane to treat various disease states, including, for example, the ability of Compound A to enhance desensitization of α4β2 NNRs.

For data set [6], the system named is non-selective central muscarinic. Briefly: Standard receptor screen at 10 μM: non-selective central muscarinic. Conditions: hydrochloride salt. In kind it is binding. The procedure: as §2
The subject of data set [7] is animal models of depression and anxiety. Briefly: Validated animal models of depression and anxiety (summary statement). Conditions: in vivo.
Data set [8] relates to non-selective peripheral muscarinic. The experiment in a line: Standard receptor screen at 10 μM: non-selective peripheral muscarinic. In kind it is binding. Conditions: hydrochloride salt. The method, then: as §2
Data set [9] addresses T2, human α4β2 NNRs (Homo sapiens, UniProt P17787+P43681).
T2 construct: expressed in transfected cells; host or cells: SH-EP1
Briefly: Function at human α4β2 NNRs, SH-EP1/human a4b2 cells, FLIPR calcium. Conditions: SH-EP1/human a4b2 cells, FLIPR calcium. In kind it is cell-based. The method, then:
as §1
After the loading period, plates were equilibrated to room temperature and the cells exposed to the test article ([…]) or nicotine or buffer alone on a FLIPR (Molecular Devices). Fluorescence (at 485 nm) was monitored throughout the experiment. The test article change in fluorescence was compared to both a positive control (10 μM nicotine) and a negative control (buffer alone) to determine the percent response relative to that of nicotine.

In data set [10] the test system is non-elective sigma. The experiment in a line: Standard receptor screen at 10 μM: sigma. The class given is binding. Conditions: hydrochloride salt. The procedure: as §2
Data set [11] has as its target Human Ganglion (Homo sapiens, UniProt P30926+P32297). Briefly: Function at human ganglion subtype, single point 100 μM. In kind it is cell-based. The procedure:
as §1

Data set [12] deals with Human α4β2 (Homo sapiens, UniProt P17787+P43681). The experiment in a line: Binding to human α4β2 NNR (Ki). Conditions: read-out: Human α4β2 Ki. The procedure:
as §1

Data set [13] concerns the target histamine H3 (Homo sapiens, UniProt Q9Y5N1). The experiment in a line: Standard receptor screen at 10 μM: histamine H3. In kind it is binding. Conditions: hydrochloride salt, read-out: inhibition at histamine H3 receptors. The method, then:
as §2

Data set [14] has as its target Rat α4β2 (Rattus norvegicus, UniProt P09483+P12390). The experiment in a line: Binding to rat α4β2 NNR (Ki). Conditions: read-out: Rat α4β2 Ki. The procedure:
as §1

Data set [15] is described as follows: Single rising dose (SRD) study of Compound C, plasma pharmacokinetics of racemate and enantiomers. Conditions: for t1/2 (mean) / Cmax / Tmax / AUC(0-inf) / half-life: plasma; for t1/2 (mean): Table 3; for Cmax / Tmax / AUC(0-inf) / half-life: human, po; for AUC(0-inf): read-out: AUCinf (mean); for half-life: read-out: Mean (SD) Terminal Elimination Half-life (converted). In kind it is in vivo. The method, then:
A single, rising dose (SRD) study was performed with Compound C (the racemate). Plasma samples were analyzed for the content of the two enantiomers, Compound A (substantially pure R), Compound B (substantially pure S). Three dose groups (Compound C) were analyzed, 50, 100, and 400 mg, and four subjects were randomly selected from the 6 subjects tested to receive active treatment in each cohort examined in the SRD study.

The test system of data set [16] is nicotinic. The experiment in a line: Standard receptor screen at 10 μM: nicotinic. The class given is binding. Conditions: hydrochloride salt. The method, then: as §2
The subject of data set [17] is A/J mice. Briefly: Depression model, tail suspension (TS). Conditions: 20 mg/kg, 10 min test. The class given is in vivo. The method, then: On the day of the test, A/J mice were brought to acclimate to the testing room for one hour. Eight animals were tested in each run. Following pretreatment with vehicle, desipramine (20 mg/kg) or Compound A, p-hydroxybenzoate (0.1, 0.3, and 1 mg/kg), a piece of transparent (Scotch) tape was attached to the tail of each mouse from about mid-tail with approximately 2 cm of tape past the end of the tail. The mice were then placed in the tail suspension chambers (white polyvinylchloride cubicles measuring 33×33×31.75 cm; Med Associates Inc., St Albans, Vt.). The mice were suspended from the hook of the TS force transducer via the tail tape. The force transducer transmitted the movements of the mouse to a recording device connected to a computer. Immobility time, struggle time, and intensity were automatically recorded for each min during the 10 min test period. Upon completion of the TS test, the mice were returned to their home cage and then to the animal colony. The TS chambers were cleaned between sessions. Data were analyzed by repeated measures and one-way analysis of variance (ANOVA) followed by Fisher PLSD post-hoc comparisons. An effect was considered significant if p<0.05.

T2 sequence (P43681 29-627 limits assumed): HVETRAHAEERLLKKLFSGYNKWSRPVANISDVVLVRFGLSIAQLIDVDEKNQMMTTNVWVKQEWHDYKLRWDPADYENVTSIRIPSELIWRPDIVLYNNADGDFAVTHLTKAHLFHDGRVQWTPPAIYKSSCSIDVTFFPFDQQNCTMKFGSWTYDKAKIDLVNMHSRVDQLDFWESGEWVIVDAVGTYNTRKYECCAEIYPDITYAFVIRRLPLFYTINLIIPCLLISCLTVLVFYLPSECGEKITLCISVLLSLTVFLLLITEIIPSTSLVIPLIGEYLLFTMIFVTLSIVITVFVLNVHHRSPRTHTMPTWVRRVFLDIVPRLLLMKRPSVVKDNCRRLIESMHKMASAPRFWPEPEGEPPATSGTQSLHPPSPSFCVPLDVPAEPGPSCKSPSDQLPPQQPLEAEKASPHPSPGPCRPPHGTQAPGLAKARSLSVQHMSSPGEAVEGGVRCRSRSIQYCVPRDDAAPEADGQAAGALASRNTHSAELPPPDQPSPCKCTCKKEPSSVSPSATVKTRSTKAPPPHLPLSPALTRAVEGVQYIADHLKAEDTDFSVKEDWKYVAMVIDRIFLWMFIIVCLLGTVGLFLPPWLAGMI
T2 sequence (P17787 26-502): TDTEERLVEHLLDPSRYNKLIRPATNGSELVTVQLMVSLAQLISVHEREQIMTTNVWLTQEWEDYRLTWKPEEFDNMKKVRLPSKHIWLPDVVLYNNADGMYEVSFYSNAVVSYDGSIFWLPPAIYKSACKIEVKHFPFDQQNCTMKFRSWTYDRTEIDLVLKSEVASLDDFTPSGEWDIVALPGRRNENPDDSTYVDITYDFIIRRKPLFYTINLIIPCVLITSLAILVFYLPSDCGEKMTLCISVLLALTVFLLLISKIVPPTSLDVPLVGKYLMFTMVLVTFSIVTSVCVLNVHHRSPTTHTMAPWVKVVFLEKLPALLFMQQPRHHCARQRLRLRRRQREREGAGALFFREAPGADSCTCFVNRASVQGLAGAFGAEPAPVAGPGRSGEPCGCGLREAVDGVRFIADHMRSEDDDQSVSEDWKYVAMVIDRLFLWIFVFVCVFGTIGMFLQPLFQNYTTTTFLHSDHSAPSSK
Sequence of Human Muscle (P02708 21-457): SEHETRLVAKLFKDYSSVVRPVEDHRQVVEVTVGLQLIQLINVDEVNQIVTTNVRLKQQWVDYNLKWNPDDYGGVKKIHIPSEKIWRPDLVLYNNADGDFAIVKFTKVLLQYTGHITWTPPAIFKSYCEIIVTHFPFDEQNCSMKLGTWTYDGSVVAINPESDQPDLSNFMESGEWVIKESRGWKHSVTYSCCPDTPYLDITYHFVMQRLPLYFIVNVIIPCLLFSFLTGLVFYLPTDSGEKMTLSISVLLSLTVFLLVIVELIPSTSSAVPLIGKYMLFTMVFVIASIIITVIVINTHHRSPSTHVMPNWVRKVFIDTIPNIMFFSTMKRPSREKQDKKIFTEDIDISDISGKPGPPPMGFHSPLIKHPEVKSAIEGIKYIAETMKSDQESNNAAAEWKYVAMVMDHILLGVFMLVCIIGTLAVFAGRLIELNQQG
Sequence of Human Muscle (P11230 24-501 partner): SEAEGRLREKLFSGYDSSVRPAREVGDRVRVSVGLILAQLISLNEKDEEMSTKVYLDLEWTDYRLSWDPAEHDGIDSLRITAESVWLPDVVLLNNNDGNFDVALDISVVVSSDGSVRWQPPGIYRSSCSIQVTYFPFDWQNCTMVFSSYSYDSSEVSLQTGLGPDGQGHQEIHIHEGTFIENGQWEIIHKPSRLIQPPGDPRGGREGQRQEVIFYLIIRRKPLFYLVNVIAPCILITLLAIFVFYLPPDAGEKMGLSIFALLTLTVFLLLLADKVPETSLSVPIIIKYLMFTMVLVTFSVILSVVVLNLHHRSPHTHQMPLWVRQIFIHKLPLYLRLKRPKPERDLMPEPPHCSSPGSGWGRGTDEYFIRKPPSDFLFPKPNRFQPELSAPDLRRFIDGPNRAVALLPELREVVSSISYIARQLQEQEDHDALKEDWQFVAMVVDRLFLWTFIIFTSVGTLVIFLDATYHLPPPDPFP
Sequence of Human Muscle (P07510 23-517): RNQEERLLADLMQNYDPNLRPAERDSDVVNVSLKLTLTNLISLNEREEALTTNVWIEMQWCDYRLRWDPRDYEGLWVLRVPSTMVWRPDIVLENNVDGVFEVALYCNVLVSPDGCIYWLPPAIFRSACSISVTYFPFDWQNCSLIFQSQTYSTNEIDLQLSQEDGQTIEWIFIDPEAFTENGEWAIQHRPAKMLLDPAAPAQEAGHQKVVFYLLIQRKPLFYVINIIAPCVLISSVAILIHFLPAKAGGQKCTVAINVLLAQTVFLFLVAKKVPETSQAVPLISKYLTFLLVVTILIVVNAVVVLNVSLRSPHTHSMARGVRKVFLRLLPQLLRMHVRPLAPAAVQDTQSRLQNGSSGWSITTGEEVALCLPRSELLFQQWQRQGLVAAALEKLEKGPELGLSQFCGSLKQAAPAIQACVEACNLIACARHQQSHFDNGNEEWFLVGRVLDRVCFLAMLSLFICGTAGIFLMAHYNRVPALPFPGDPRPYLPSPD
Sequence of Human Muscle (Q07001 22-517): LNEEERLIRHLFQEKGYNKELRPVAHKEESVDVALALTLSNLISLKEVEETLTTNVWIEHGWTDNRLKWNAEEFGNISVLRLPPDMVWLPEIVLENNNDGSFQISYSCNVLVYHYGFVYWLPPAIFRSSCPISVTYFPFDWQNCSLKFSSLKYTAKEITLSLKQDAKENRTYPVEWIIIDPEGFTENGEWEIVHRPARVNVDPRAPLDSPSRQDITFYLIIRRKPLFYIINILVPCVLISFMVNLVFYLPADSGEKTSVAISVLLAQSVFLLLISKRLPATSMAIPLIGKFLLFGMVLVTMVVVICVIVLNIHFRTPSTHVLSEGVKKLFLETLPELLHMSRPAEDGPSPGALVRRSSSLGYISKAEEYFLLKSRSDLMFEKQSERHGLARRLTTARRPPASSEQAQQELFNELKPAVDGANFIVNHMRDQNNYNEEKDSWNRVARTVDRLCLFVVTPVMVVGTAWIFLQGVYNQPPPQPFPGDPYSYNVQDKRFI
Sequence of histamine H3 (Q9Y5N1 whole entry): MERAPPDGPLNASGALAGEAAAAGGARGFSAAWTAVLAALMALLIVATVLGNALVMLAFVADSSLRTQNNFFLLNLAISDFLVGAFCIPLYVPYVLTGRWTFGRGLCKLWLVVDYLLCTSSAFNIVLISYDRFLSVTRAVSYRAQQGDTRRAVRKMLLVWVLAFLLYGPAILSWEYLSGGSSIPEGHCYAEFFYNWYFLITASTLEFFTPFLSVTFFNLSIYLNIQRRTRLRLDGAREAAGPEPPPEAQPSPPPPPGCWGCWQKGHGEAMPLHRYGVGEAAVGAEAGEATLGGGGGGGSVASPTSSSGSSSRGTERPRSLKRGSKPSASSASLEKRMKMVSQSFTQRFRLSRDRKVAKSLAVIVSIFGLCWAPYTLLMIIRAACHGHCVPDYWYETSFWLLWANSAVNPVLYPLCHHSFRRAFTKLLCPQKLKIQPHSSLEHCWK
Sequence of Human Ganglion (P32297 32-505): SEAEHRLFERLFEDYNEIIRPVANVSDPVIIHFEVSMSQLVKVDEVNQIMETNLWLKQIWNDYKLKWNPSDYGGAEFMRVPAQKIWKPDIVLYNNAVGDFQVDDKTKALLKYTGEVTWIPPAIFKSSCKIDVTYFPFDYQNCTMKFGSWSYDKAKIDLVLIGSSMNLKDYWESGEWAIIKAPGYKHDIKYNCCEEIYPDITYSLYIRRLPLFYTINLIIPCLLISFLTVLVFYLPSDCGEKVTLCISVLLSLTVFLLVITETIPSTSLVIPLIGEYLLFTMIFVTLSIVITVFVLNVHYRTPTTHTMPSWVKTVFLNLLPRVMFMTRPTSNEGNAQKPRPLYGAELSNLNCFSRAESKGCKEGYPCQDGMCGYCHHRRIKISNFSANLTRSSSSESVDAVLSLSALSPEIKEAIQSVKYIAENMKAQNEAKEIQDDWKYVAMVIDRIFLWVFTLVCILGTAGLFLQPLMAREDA
Sequence of Human Ganglion (P30926 22-498): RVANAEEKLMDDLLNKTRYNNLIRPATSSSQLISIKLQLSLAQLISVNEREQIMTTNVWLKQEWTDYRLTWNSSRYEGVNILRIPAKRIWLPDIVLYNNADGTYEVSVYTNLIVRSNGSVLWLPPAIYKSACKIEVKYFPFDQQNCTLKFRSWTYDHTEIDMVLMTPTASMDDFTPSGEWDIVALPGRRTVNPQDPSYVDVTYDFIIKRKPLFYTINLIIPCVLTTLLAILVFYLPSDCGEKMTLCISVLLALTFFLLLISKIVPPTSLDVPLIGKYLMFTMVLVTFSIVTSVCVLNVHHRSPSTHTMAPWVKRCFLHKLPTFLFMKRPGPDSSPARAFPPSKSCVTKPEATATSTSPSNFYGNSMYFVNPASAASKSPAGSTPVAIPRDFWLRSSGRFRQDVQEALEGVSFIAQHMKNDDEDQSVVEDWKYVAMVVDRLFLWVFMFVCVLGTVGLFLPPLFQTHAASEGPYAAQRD
Sequence of Human α4β2 (P43681 29-627 limits assumed): as the sequence (P43681 29-627 limits assumed) above
Sequence of Human α4β2 (P17787 26-502): as the sequence (P17787 26-502) above
Sequence of Rat α7 (Q05941 23-502): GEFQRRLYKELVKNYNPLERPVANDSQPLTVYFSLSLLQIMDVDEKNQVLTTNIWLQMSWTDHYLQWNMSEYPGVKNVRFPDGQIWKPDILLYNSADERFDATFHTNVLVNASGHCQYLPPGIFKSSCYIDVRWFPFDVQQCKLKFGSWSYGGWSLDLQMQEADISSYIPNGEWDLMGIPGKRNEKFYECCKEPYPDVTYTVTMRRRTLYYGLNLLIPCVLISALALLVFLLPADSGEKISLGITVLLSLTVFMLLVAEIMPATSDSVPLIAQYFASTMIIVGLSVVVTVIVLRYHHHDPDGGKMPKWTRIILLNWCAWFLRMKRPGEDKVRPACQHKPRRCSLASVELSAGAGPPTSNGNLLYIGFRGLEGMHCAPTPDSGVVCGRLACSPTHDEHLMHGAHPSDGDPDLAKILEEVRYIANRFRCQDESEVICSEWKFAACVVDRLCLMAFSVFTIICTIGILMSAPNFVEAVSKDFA

The melting point is the temperature of the solid-liquid transition. With `O=C(O)CCC(=O)O.c1cncc(N2CCC3(CCCN3)C2)c1` (stereo not drawn), the melting point was in the range of 131.5 to 133 °C.
As to `Cl.Cl.c1cncc(N2CCC3(CCCN3)C2)c1` (stereo not drawn), the melting point is 242 to 244 °C.
The same measure, in the same setting: then `O.O=C(O)C(=O)O.O=C(O)C(=O)O.c1cncc(N2CCC3(CCCN3)C2)c1` (stereo not drawn) (hydrate or solvate), with 200 to 201.5 °C.
Take `c1cncc(N2CCC3(CCCN3)C2)c1` (racemic) (as salt: hydrochloride) [Compound C, 7-(3-pyridinyl)-1,7-diazaspiro[4.4]nonane]: the melting point was 227 to 232 °C and 227 to 233 °C.
Take `O=C(O)c1ccc(O)cc1.c1cncc(N2CC[C@]3(CCCN3)C2)c1` [(R)-7-(3-pyridinyl)-1,7-diazaspiro[4.4]nonane mono-p-hydroxybenzoate]: the stability to humidity result in data set [1] (DVS) was “particularly stable to high humidity”. Moreover, the “weight gain during the course of the DVS study” value in data set [1] (increasing then decreasing humidity over about 10 h) is recorded as “less than 0.2 wt %”.
In general, pKi refers to the Ki on a negative log10 scale, so that one unit is a factor of ten. One may read the pEC50 as −log10 of the EC50, conventionally taken in molar units. As usually defined, the Emax is the maximal effect, on the per cent scale that the assay sets. One may read the Cmax as the maximum level reached in the sampled fluid or tissue. As a reminder, the Tmax is the time at which the peak concentration occurs. In general, half-life refers to the time needed for the level to fall by half in the phase considered. For `c1cncc(N2CC[C@@]3(CCCN3)C2)c1` [Compound B, (S)-7-(3-pyridinyl)-1,7-diazaspiro[4.4]nonane], the “induced convulsion (animals affected)” value in [2] is 1/6. In data set [3], the “Human Muscle SP (100 μM)” value is on record as less than 1. Further, the pKi is less than 5.00 in data set [4], 7.52 in data set [12] and 7.09 in data set [14]. The inhibition at 10 µM was 53% in data set [5] and 58% in data set [13]. The “inhibition at non-selective central muscarinic receptors” value in data set [6] stood at 84 % inhibition. In [7], the “Efficacy in multiple validated animal models of depression and anxiety” value is given as “failed to demonstrate activity”. In data set [8], the “inhibition at non-selective peripheral muscarinic receptors” value came to 84 % inhibition. The pEC50 in data set [9] (read-out: Human α4β2 EC50) is 5.41. Moreover, the Emax in data set [9] (relative to 10 μM nicotine, read-out: Human α4β2 Emax (% of nic resp)) was found to be 87%. In addition, the “inhibition at non-elective sigma receptors” value in [10] is on record as 56 % inhibition. Further, in data set [11], the “Human Ganglion SP (100 μM)” value worked out at 18. In addition, the figures for the “t1/2 (mean)” value in [15] (50 mg Compound C (n = 4)), in data set [15] (100 mg Compound C (n = 4)) and in [15] (400 mg Compound C (n = 4)) were 21.0 h, 17.8 h and 16.6 h, respectively. Moreover, the Cmax in [15] (50 mg Compound C (n = 4)) came to 12.1 ng/mL; in data set [15] (100 mg Compound C (n = 4)) it was 24.6 ng/mL; in [15] (400 mg Compound C (n = 4)), 158 ng/mL. For the same compound, the results for the Tmax in data set [15] (50 mg Compound C (n = 4)), in data set [15] (100 mg Compound C (n = 4)) and in data set [15] (400 mg Compound C (n = 4)) were 3.13 h, 2.75 h and 2 h, respectively. Besides, the AUC(0-inf) in [15] (50 mg Compound C (n = 4)) came out at 237 ng·h/mL; in [15] (100 mg Compound C (n = 4)), 364 ng·h/mL; in data set [15] (400 mg Compound C (n = 4)), 2130 ng·h/mL. The half-life in data set [15] (50 mg Compound C (n = 4)) was 21 h; in data set [15] (100 mg Compound C (n = 4)), 17.8 h; in data set [15] (400 mg Compound C (n = 4)), 16.6 h. Moreover, the “share of total exposure (Cmax and AUCinf) compared to the racemate, Compound C” value in data set [15] (oral administration of Compound C) is recorded as “approximately half”. The “inhibition at nicotinic receptors” value in [16] was found to be 99 % inhibition.
For the compound `CNCCCN1c2ccccc2CCc2ccccc21` [desipramine, reference compound], in data set [17], the “struggle intensity compared to saline” value is on record as “increased struggle intensity” and the “total time immobile compared to saline” value was “decreased total time immobile”.
